Experimental data as given in ChEMBL document CHEMBL1201862, “PubChem BioAssay data set” (2004).
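Method: 48-hour compound exposure of cells in 96-well plates, five concentrations, linear interpolation of endpoints. At the GI50, growth is halved.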 Active and inactive are the calls of the source. Cut-off read from the data, not from the text of the source: active = GI50 up to about 1.1 µM and inactive = higher.

Assays:
Test in all cases: NCI tumour cell line growth inhibition, 48 h
[1] = system: DLD-1
[2] = system: RXF 631
[3] = system: LXFL 529
[4] = system: XF498
[5] = system: SNB-78
[6] = system: DMS-114
[7] = system: HOP-18
[8] = system: KM-20L2

Measured: GI50

CN(C)c1ccc2c(c1)C(=O)N(OS(=O)(=O)c1ccc([N+](=O)[O-])cc1)C2=O
inactive: [1] 24 µM | [2] 22.3 µM | [3] 17.9 µM | [4] 16.7 µM | [5] 26.7 µM | [6] > 10 µM | [7] > 100 µM

COc1ccccc1NC(=O)C1=C(C)NC(C)=C(C(=O)Nc2ccccc2OC)C1c1ccccc1[N+](=O)[O-]
inactive: [1] 16.9 µM | [2] 19.6 µM | [3] 11.7 µM | [4] 22.2 µM | [5] 34.2 µM | [6] 15 µM | [7] 29.7 µM

COc1ccc(/C=C/C(=O)c2sc(-n3nc(-c4ccccc4)cc3-c3ccccc3)nc2C)cc1
inactive: [1] > 10 µM | [2] > 10 µM | [3] > 10 µM | [4] 33.7 µM | [8] 77.4 µM | [5] > 10 µM | [6] 31.3 µM | [7] > 10 µM

O=C(NCc1cccnc1)C1COc2cc(-c3cc(=O)c4ccccc4o3)ccc2O1 (stereo not given)
inactive: [1] > 100 µM | [2] > 56.1 µM | [3] 4.95 µM | [4] 24.6 µM | [8] > 100 µM | [5] > 82.8 µM | [6] 14.1 µM | [7] > 79.4 µM
